In DBAASP:
Converted amounts (≈) assume the structure as drawn. “And” between values parts separate entries of the source, which are not always exact repeats. Equal values may be shown once. Blank lines part the entries; values can stand above or below the molecule they belong to.

Key:
Test in all cases: ≥ marks a high value that may be exact or a test limit, other limits are often not marked, values filed in µg/mL are converted to µM
Candida krusei ATCC 6258 = tested on: Candida krusei ATCC 6258
[1] = tested on: Enterococcus faecalis ATCC 29212
[2] = tested on: Escherichia coli ATCC 12795
[3] = tested on: Klebsiella pneumoniae ATCC 10031
[4] = tested on: Mannheimia haemolytica 82-25
[5] = tested on: Pseudomonas aeruginosa ATCC 27312
[6] = tested on: Serratia marcescens ATCC 14756
[7] = tested on: Staphylococcus aureus ATCC 29213
Escherichia coli TOP 10 = tested on: Escherichia coli TOP 10
Acinetobacter baumannii = tested on: Acinetobacter baumannii
[8] = tested on: Bacillus cereus ATCC 11778
[9] = tested on: Escherichia coli ATCC 25922
Escherichia coli O157:H7 = tested on: Escherichia coli O157:H7
[10] = tested on: Listeria monocytogenes 10403s
[11] = tested on: Pseudomonas aeruginosa ATCC 27853
[12] = tested on: Salmonella enterica subsp. enterica serovar Typhimurium ATCC 13311
[13] = tested on: Shigella sonnei ATCC 11060
[14] = tested on: Staphylococcus aureus ATCC 25923
[15] = tested on: Staphylococcus epidermidis ATCC 12228
Vibrio cholerae O1 Inaba = tested on: Vibrio cholerae O1 Inaba
[16] = tested on: Escherichia coli ATCC 35218
Listeria monocytogenes = tested on: Listeria monocytogenes
[17] = tested on: Pseudomonas aeruginosa RP73
[18] = tested on: Salmonella enterica subsp. enterica serovar Enteritidis 706 RIVM
[19] = tested on: Salmonella enterica subsp. enterica serovar Typhimurium ATCC 14028
[20] = tested on: Staphylococcus aureus WKZ2
[21] = tested on: Acinetobacter baumannii 7226/16
[22] = tested on: Escherichia coli ESBL 521/17
Escherichia coli ML-35p = tested on: Escherichia coli ML-35p
[23] = tested on: Klebsiella pneumoniae ESBL 344/17
[24] = tested on: Pseudomonas aeruginosa 522/17
[25] = tested on: Staphylococcus aureus 1399/17
[26] = tested on: Staphylococcus aureus ATCC 33591
[27] = tested on: Staphylococcus aureus SG511
Candida albicans = tested on: Candida albicans
[28] = tested on: Enterococcus faecalis NCTC 12203
Escherichia coli UB1005 = tested on: Escherichia coli UB1005
Escherichia coli = tested on: Escherichia coli
[29] = tested on: Mycobacterium tuberculosis H37Rv
[30] = tested on: Pseudomonas aeruginosa 253
[31] = tested on: Pseudomonas aeruginosa 910
[32] = tested on: Pseudomonas aeruginosa 919
[33] = tested on: Pseudomonas aeruginosa H103
[34] = tested on: Pseudomonas aeruginosa PAO1
[35] = tested on: Salmonella enterica serovar Typhimurium
Staphylococcus aureus MR = tested on: Staphylococcus aureus MR
[36] = tested on: Staphylococcus epidermidis

SMILES: C[C@H](N)C(=O)N[C@@H](CC(=O)O)C(=O)N[C@@H](C)C(=O)N[C@@H](CC(=O)O)C(=O)N[C@@H](CC(=O)O)C(=O)N[C@@H](CC(=O)O)C(=O)N[C@@H](CC(=O)O)C(=O)N[C@@H](CC(=O)O)C(=O)N[C@@H](CCCCN)C(=O)O [ADADDDDDK]
MIC (Candida krusei ATCC 6258): ≥ 5110 µM | MIC [1]: 1800 µM (≈ 1760 µg/mL) | MIC [2]: ≥ 850 µM | MIC [3]: ≥ 900 µM | MIC [4]: ≥ 230 µM | MIC [5]: ≥ 1500 µM | MIC [6]: ≥ 1500 µM | MIC [7]: 1800 µM (≈ 1760 µg/mL)

SMILES: CC[C@H](C)[C@H](NC(=O)[C@H](CCCCN)NC(=O)[C@H](CO)NC(=O)[C@@H](NC(=O)[C@@H](NC(=O)[C@H](CC(N)=O)NC(=O)[C@H](CCCCN)NC(=O)[C@H](Cc1ccccc1)NC(=O)[C@H](C)NC(=O)[C@@H]1CCCN1C(=O)[C@H](CC(C)C)NC(=O)[C@@H](N)Cc1ccccc1)C(C)C)[C@@H](C)CC)C(=O)N[C@@H](CC(C)C)C(=O)N[C@@H](CCCCN)C(=O)N[C@@H](C)C(=O)N[C@@H](CC(C)C)C(=O)N[C@@H](CCCCN)C(=O)N[C@@H](CCCCN)C(=O)N[C@@H](CCCCN)C(=O)N[C@H](C(N)=O)C(C)C [FLPAFKNVISKILKALKKKV]
MIC (Escherichia coli TOP 10): 5.47 µM (≈ 12.5 µg/mL)

SMILES: CC[C@H](C)[C@H](NC(=O)[C@H](CCCN=C(N)N)NC(=O)[C@H](CCCCN)NC(=O)[C@H](C)NC(=O)[C@@H](NC(=O)[C@@H](N)CCCCN)[C@@H](C)CC)C(=O)N[C@@H](Cc1c[nH]c2ccccc12)C(=O)N[C@@H](CCCCN)C(=O)N[C@H](C(=O)N[C@@H](CC(C)C)C(=O)N[C@@H](CCCN=C(N)N)C(=O)N[C@@H](CCCN=C(N)N)C(=O)N[C@@H](CCCN=C(N)N)C(=O)N[C@@H](CC(C)C)C(=O)N[C@@H](Cc1ccccc1)C(N)=O)[C@@H](C)CC [KIAKRIWKILRRRLF]
MIC (Acinetobacter baumannii): 1.96 µM (≈ 3.91 µg/mL) | MIC [8]: 1.96 µM (≈ 3.91 µg/mL) | MIC [1]: 15.6 µM (≈ 31.2 µg/mL) | MIC [9]: 7.82 µM (≈ 15.6 µg/mL) | MIC (Escherichia coli O157:H7): 7.82 µM (≈ 15.6 µg/mL) | MIC [10]: 0.976 µM (≈ 1.95 µg/mL) | MIC [11]: 3.91 µM (≈ 7.81 µg/mL) | MIC [12]: 0.976 µM (≈ 1.95 µg/mL) | MIC [13]: 1.96 µM (≈ 3.91 µg/mL) | MIC [14]: 3.91 µM (≈ 7.81 µg/mL) | MIC [15]: 1.96 µM (≈ 3.91 µg/mL) | MIC (Vibrio cholerae O1 Inaba): 1.96 µM (≈ 3.91 µg/mL)

SMILES: CC[C@H](C)[C@H](NC(=O)[C@@H]1CCCN1)C(=O)N[C@@H](CCSC)C(=O)N[C@@H](Cc1ccc(O)cc1)C(=O)N[C@@H](CCCCN)C(=O)N[C@H](C(=O)N1CCC[C@H]1C(=O)N[C@@H](CC(C)C)C(=O)N[C@H](C(=O)N[C@@H](CCCN=C(N)N)C(=O)N[C@@H](CCCCN)C(=O)N[C@@H](CCCCN)C(=O)N[C@@H](CO)C(=O)N[C@@H](CC(C)C)C(=O)N[C@@H](CCCN=C(N)N)C(=O)N[C@@H](CCCN=C(N)N)C(=O)N[C@H](C(=O)N[C@@H](CC(C)C)C(=O)N[C@@H](CO)C(=O)N[C@@H](CCC(=O)O)C(=O)N[C@@H](CCCN=C(N)N)C(=O)NCC(=O)N[C@@H](CC(C)C)C(=O)N[C@@H](CC(C)C)C(=O)N[C@@H](CCCCN)C(=O)N[C@@H](CC(=O)O)C(=O)O)[C@@H](C)O)[C@@H](C)CC)C(C)C [PIMYKVPLIRKKSLRRTLSERGLLKD]
MIC [1]: 50 µM (≈ 156 µg/mL) | MIC [9]: 25 µM (≈ 77.8 µg/mL) | MIC [16]: 25 µM (≈ 77.8 µg/mL) | MIC (Listeria monocytogenes): ≥ 50 µM | MIC [17]: 12.5 µM (≈ 38.9 µg/mL) | MIC [18]: ≥ 50 µM | MIC [19]: > 12.5 µM | MIC [20]: 25 µM (≈ 77.8 µg/mL)

Second part, the molecule after the results:

MIC [21]: 16 µM (≈ 29.8 µg/mL) | MIC [22]: 16 µM (≈ 29.8 µg/mL) | MIC (Escherichia coli ML-35p): 8 µM (≈ 14.9 µg/mL) | MIC [23]: 16 µM (≈ 29.8 µg/mL) | MIC [24]: ≥ 64 µM | MIC [25]: ≥ 128 µM | MIC [26]: 16 µM (≈ 29.8 µg/mL) | MIC [27]: 2 µM (≈ 3.72 µg/mL)
SMILES: CC[C@H](C)[C@H](NC(=O)[C@H](CCCN=C(N)N)NC(=O)[C@@H](NC(=O)[C@@H]1CCCN1C(=O)[C@@H]1CCCN1C(=O)[C@H](CCCN=C(N)N)NC(=O)[C@H](CCCN=C(N)N)NC(=O)[C@H](Cc1ccccc1)NC(=O)[C@@H]1CCCN1C(=O)[C@H](CC(C)C)NC(=O)[C@H](CCCN=C(N)N)NC(=O)[C@H](Cc1ccccc1)NC(=O)[C@@H](N)CCCN=C(N)N)[C@@H](C)CC)C(=O)N[C@@H](Cc1cnc[nH]1)C(N)=O [RFRLPFRRPPIRIH]

MIC (Candida albicans): 2.4 µM (≈ 4 µg/mL) | MIC [1]: 2.4 µM (≈ 4 µg/mL) | MIC [28]: 1.2 µM (≈ 2 µg/mL) | MIC [9]: 2 µM (≈ 3.33 µg/mL) | MIC (Escherichia coli UB1005): 0.601 µM (≈ 1 µg/mL) | MIC (Escherichia coli): 1.2 µM (≈ 2 µg/mL) | MIC [29]: 1.92 µM (≈ 3.2 µg/mL) | MIC [30]: 8 µM (≈ 13.3 µg/mL) | MIC [31]: 16 µM (≈ 26.6 µg/mL) | MIC [32]: 16 µM (≈ 26.6 µg/mL) | MIC [33]: 1.2 µM (≈ 2 µg/mL) | MIC [34]: 8 µM (≈ 13.3 µg/mL) | MIC [35]: 2.4 µM (≈ 4 µg/mL) | MIC [14]: 4 µM (≈ 6.66 µg/mL) | MIC [7]: 1.2 µM (≈ 2 µg/mL) | MIC (Staphylococcus aureus MR): 1.2 µM (≈ 2 µg/mL) | MIC [36]: 0.12 µM and 0.3 µM
SMILES: CC[C@H](C)[C@H](NC(=O)[C@H](CCCN=C(N)N)NC(=O)[C@H](Cc1c[nH]c2ccccc12)NC(=O)[C@H](CCCN=C(N)N)NC(=O)[C@@H](N)CCCN=C(N)N)C(=O)N[C@H](C(=O)N[C@H](C(=O)N[C@H](C(=O)N[C@@H](CCCN=C(N)N)C(=O)N[C@H](C(=O)N[C@@H](CCCN=C(N)N)C(=O)N[C@@H](CCCN=C(N)N)C(=O)O)C(C)C)[C@@H](C)CC)C(C)C)C(C)C [RRWRIVVIRVRR]
